One experiment relates to human MAFbx promoter. Description: Human MAFbx promoter luciferase reporter assay in C2C12 / C2C12.AR cells. The class given is cell-based. An excerpt: The reporter genes pMAF3.1, pMAF2.4, pMAF948, pMAF400, and pMAF400-241 express firefly luciferase under the control of promoter regions of the human MAFbx gene and are described in Example 1. The rARC562G vector, encoding rat AR with a C562->G mutation in the first zinc binding module that disrupts binding of AR to DNA was described by Palvimo et al. (Mol Endocrinol 7: 1399-1407, 1993) pAR.4RKM (expressing AR with 4 R/K->M mutations in the nuclear localization sequence that is unable to enter the nucleus) and pAR.ABC (lacking the ligand binding domain) were described by Zhou et al. (J Biol Chem 269: 13115-13123, 1994). The pBabe.puro retroviral backbone described by Morgenstern and Land (Nucleic Acids Res 18: 3587-3596, 1990) was modified by introduction of a Not1 site. The ARE reporter gene expressing firefly luciferase under control of the MMTV hormone response element, and pSP72hAR-1, containing an insert of the full-length cDNA clone of the human AR, were provided by Dr. Diane Robins (University of Michigan). pRL-CMV expressing Renilla luciferase was from Promega (Madison, Wis.).
C2C12 cells (American Type Culture Collection, Manassas, Va.) were maintained in Dulbeco's modified Eagle's Medium (DMEM) containing 10% fetal bovine serum (FBS) and penicillin (100 U/ml)/streptomycin (100 μg/ml) (growth medium). Cells were incubated at 37° C. in humidified air containing 10% CO2. 293T cells (American Type Culture Collection) were maintained in growth medium as above. Transfection was achieved using Lipofectamine-Plus (Invitrogen, Carlsbad, Calif.) using 200 ng total DNA per well.
Cells were seeded into wells of 24-well plates (5×10^5 cells/well) then maintained overnight in DMEM with 10% CDS-FBS. Cells were co-transfected with the various reporter genes and pRL-CMV. Cells were incubated in the transfection mixture overnight, then covered with DMEM supplemented with 10% charcoal-dextran-stripped FBS (CDS-FBS) and either ethanol (EtOH) or hormones dissolved in EtOH. Cells were maintained for an additional 24 hours, at which time both firefly and renilla luciferase activity were determined using the Dual Luciferase Assay (Promega, Madison, Wis.) and a Berthold 96-well plate luminometer. Firefly luciferase activities were normalized relative to renilla luciferase. Ethanol concentrations were less than 0.1%.

The next experiment relates to MAFbx. Briefly: MAFbx expression in gastrocnemius of rats infused with dexamethasone with or without testosterone (qPCR). The settings on record: rat, dexamethasone 0.7 mg/kg/day infusion, 7 days. Format: in vivo. As for the experimental part: Muscle was flash frozen on dry ice after excision. Total RNA was isolated by phenol:chloroform extraction (Chomczynski and Sacchi, Anal Biochem 162: 156-159, 1987) and further enriched using RNAeasy minicolumns (Qiagen) with digestion on the column with RNAse-free DNAse (Qiagen).
RNA was quantified by absorbance at 260 nm. One microgram of total RNA was used to prepare cDNA libraries using the High Capacity cDNA Archive Kit (Applied Biosystems, Foster City, Calif.). Libraries were diluted 25-fold with water. Real time PCR was performed using Taqman 2×PCR buffer (Applied Biosystems) and an Applied Biosystems 7500 thermocycler. Data were normalized relative to that for 18S RNA. Relative changes in expression were determined using the 2^−ΔΔCt method. Taqman Assay on Demand probes (Applied Biosystems) were used for all assays except rat 18S RNA, which was quantified using the following […]: Forward: […] (SEQ ID NO:15); Reverse: […] (SEQ ID NO:16); Probe: FAM-[…] (SEQ ID NO:17; Labeled with FAM and non-fluoresent quencher, NFQ, at 5′ and 3′ ends, repsectively).
Male Wistar rats weighing 250 gm were anesthetized with ketamine/xylazine followed by implantation Alzet miniosmotic pumps administering vehicle (propylene glycocol), dexamethasone (0.7 mg/kg/day), or dexamethasone plus testosterone (28 mg/kg/day). […]
In general terms: In qPCR the cycle at which signal appears reflects the starting amount.

The test system of another experiment is MAFbx mRNA. Description: MAFbx mRNA levels in AR6 / C2C12.AR cells (qPCR). The class given is cell-based, mouse. The settings on record: dexamethasone overnight. As for the experimental part: (A) Rats were administered test agents as indicated in the figure for 7-days, at which time animals were sacrificed and MAFbx expression was determined in gastrocnemius muscles by qPCR. Data are mean values±SEM for at least 8 animals. * p<0.05 vs vehicle, t-test. (B) AR6 cells were seeded into 6-well plates and incubated overnight in growth medium. Medium was replaced with DMEM containing 2% horse serum followed by incubation for an additional 48 hours. Hormones or vehicle (EtOH) were added to the medium and cells were incubated overnight, at which time MAFbx mRNA levels were determined by qPCR and expressed as fold-induction versus levels in cells incubated with EtOH. Data are mean values±SEM for three determinations each performed in triplicate. * p<0.05 vs. EtOH (ANOVA). (C) Effect of testosterone on MAFbx mRNA half-life. C2C12.AR cells were incubated overnight in growth medium supplemented with testosterone or vehicle (EtOH). […] Levels of MAFbx mRNA are expressed as a percentage of those at time zero. […]
RNA was quantified by absorbance at 260 nm. […] Relative changes in expression were determined using the 2^−ΔΔCt method. Taqman Assay on Demand probes (Applied Biosystems) were used for all assays except rat 18S RNA, which was quantified using the following Assay on Demand Probes: Forward: […] […]

The next experiment has as its system human IGF-1 promoter. Briefly: Human IGF-1 promoter luciferase reporter assay in HepG2 cells. The class given is cell-based. From the text: pREP4.hAR, expressing full length human AR, and pCMV.Sport.β-Gal, expressing β-galactosidase under a CMV promoter, were as described (Zhao et al., Steroids 69: 357-366, 2004). pcDNA5.rGR, expressing rat glucocorticoid receptor, was provided by Dr. Diane Robins (University of Michigan). The rARC562G vector expressing rat AR with a C562G mutation in the DBD, which results in a loss of DNA binding. The IGF-1 reporter genes pOLuc.1630, pOLuc1300, pOLuc926, pOLuc 320 were provided by Dr. Peter Rotwein (Oregon Health & Science University). These reporters expressed firefly luciferase under the control of 320 to 1630 bases upstream of the transcriptional start site of the human IGF-1 promoter as described in (Kim et al., Mol Endocrinol 5: 1964-1972, 1991). pEGX 4T-1 hAR2, expressing GST fused to the N-terminus of AR DNA-binding domain, was provided by Robert J. Matusik, Ph.D. (Vanderbuilt University Medical Center). pRL-CMV expressing Renilla luciferase was from Promega (Madison, Wis.).
HepG2 cells (ATCC, Bethesda, Md.) were maintained in Dulbecco's modified Eagle's medium (DMEM), supplemented with 10% fetal bovine serum (FBS) and antibiotics (penicillin 100 U/ml, streptomycin 100 μg/ml). Cells were seeded at 5×10^4 cells/per well into wells of 24-well plates containing DMEM supplemented with 10% charcoal-dextran stripped FBS (CDS-FBS). The next day, cells were transfected with a total of 300 ng DNA per well using Lipofectamine Plus (Invitrogen) with plasmids as indicated in the figure legends. Three hours after transfection, cells were covered with DMEM supplemented with 10% CDS-FBS and either hormone dissolved in ethanol, or ethanol, as indicated in the figures. […] After overnight incubation, activities of firefly and Renilla luciferase were determined using the Dual Luciferase Assay system (Promega).
Reporter plasmids expressing firefly luciferase under the control of upstream regions of the IGF-1 promoter were constructed by PCR amplification of segments of interest using primers shown in Table 2, using pOLuc-1630 as a template. The location of each amplified fragment is relative to the transcriptional start site. PCR amplification was conduced using a high fidelity Taq polymerase (Pfx, Invitrogen). PCR products were cloned into pCR2.1-TOPO TA (Invitrogen) and the sequences of the inserts were verified. Inserts were excised with Kpn I and Xho I, and were subcloned into pGL3-Promoter (Promega) at these same sites. PGL3-Promoter expresses firefly luciferase under the control of a minimal promoter.

SMILES strings stand for the structures. Entries after “also recorded” stand apart in the source; their conditions may differ.

For `C[C@@H]1C[C@H]2[C@@H]3CCC4=CC(=O)C=C[C@]4(C)[C@@]3(F)[C@@H](O)C[C@]2(C)[C@@]1(O)C(=O)CO` [dexamethasone], the “increase in luciferase expression of pMAF3.1 reporter” value with human MAFbx promoter (C2C12.AR cells, dexamethasone) is listed as “more than 1.5 fold”. The “increase in expression of MAFbx in gastrocnemius muscle” value with MAFbx was approximately 4 fold. In addition, in the experiment with MAFbx mRNA, the “increase in MAFbx mRNA expression” value is “approximately 3 fold”. In the experiment on human IGF-1 promoter (HepG2 + GR, dexamethasone), the “activation of reporters incorporating ARE2 or both AREs (p3-13a and p3-32)” value came to 5 fold; the “induction of luciferase expression, reporters incorporating ARE1 (p3-230 and p3-22)” value was “less than 2 fold”.

`C[C@]12COC(=O)C[C@@H]1CC[C@@H]1[C@@H]2CC[C@@]2(C)[C@H]1CC[C@]2(C)O` [oxandrolone]: in the experiment with human MAFbx promoter (C2C12 muscle cells, 5 μM), the “suppression of reporter under control of 3.1 of the MAFbx upstream promoter” value is recorded as 15%. The “expression of MAFbx reporter (general statement)” value in the experiment with human MAFbx promoter (cells transduced with the MAFbx reporter construct) was “does not decrease; also recorded: less effective”. Also, the “activation of the upstream promoter of the human IGF-1 gene” value in the experiment on human IGF-1 promoter (Hep G2 cells, FIG. 18) is “does not induce and not”.

Values taken from patent US7429482B2, “Screening tools for discovery of novel anabolic agents” (United States of America as represented by the Department …, priority 2005, dated 2008).
